Results as given in patent US8530667B2, “Herbicides” (Syngenta Limited, priority 2007, dated 2013).

Assays:
Type in all cases: in vivo
[1] = test system: Echinochloa crus-galli (ECHCG); assay: Example A pre-emergence herbicidal activity, glasshouse pot test; details: Rate 250 g/ha, evaluated 19 or 20 days later, read-out: Pre-Emergence Activity ECHCG (100=total damage to plant; 0=no damage to plant)
Protocol: (§1) Seeds of a variety of test species were sown in standard soil in pots. After cultivation for one day (pre-emergence) or after 10 days cultivation (post-emergence) under controlled conditions in a glasshouse, the plants were sprayed with an aqueous spray solution derived from the formulation of the technical active ingredient in 0.6 ml acetone and 45 ml formulation solution containing 10.6% Emulsogen EL (Registry number 61791-12-6), 42.2% N-methylpyrrolidone, 42.2% dipropylene glycol monomethyl ether (Registry number 34590-94-8) and 0.2% X-77 (Registry number 11097-66-8). The test plants were then grown in a greenhouse under optimum conditions until, 14 or 15 days later for post-emergence and 19 or 20 days for pre-emergence, the test was evaluated (100=total damage to plant; 0=no damage to plant). Alopecurus myosuroides (ALOMY), Avena fatua (AVEFA), Lolium perenne (LOLPE), Setaria faberi (SETFA), Digitaria sanguinalis (DIGSA), Echinochloa crus-galli (ECHCG)

Avena fatua (AVEFA) [2] = assay: as above; details: Rate 250 g/ha, evaluated 19 or 20 days later, read-out: Pre-Emergence Activity AVEFA (100=total damage to plant; 0=no damage to plant)
Protocol: as §1

[3] = test system: Digitaria sanguinalis (DIGSA); assay: as above; details: Rate 250 g/ha, evaluated 19 or 20 days later, read-out: Pre-Emergence Activity DIGSA (100=total damage to plant; 0=no damage to plant)
Protocol: as §1

[4] = test system: Alopecurus myosuroides (ALOMY); assay: as above; details: Rate 250 g/ha, evaluated 19 or 20 days later, read-out: Pre-Emergence Activity ALOMY (100=total damage to plant; 0=no damage to plant)
Protocol: as §1

Setaria faberi (SETFA) [5] = assay: as above; details: Rate 250 g/ha, evaluated 19 or 20 days later, read-out: Pre-Emergence Activity SETFA (100=total damage to plant; 0=no damage to plant)
Protocol: as §1

Lolium perenne (LOLPE) [6] = assay: as above; details: Rate 250 g/ha, evaluated 19 or 20 days later, read-out: Pre-Emergence Activity LOLPE (100=total damage to plant; 0=no damage to plant)
Protocol: as §1

[7] = test system: Echinochloa crus-galli (ECHCG); assay: Example B post-emergence herbicidal activity, glasshouse pot test; details: 312 h, rate 1000 g/ha, evaluated after 13 days, read-out: Post-emergence activity ECHCG (100=total damage to plant; 0=no damage to plant)
Outline: (§2)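 Seeds sown in standard soil in pots were sprayed 1 day (pre-emergence) or 8 days (post-emergence) after sowing with the active ingredient in acetone/water (50:50) plus 0.5% Tween 20. Plants were kept in a glasshouse at 24/16° C day/night, 14 h light, 65% humidity. Damage was scored after 13 days (0–100).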

[8] = test system: Amaranthus retoflexus (AMARE); assay: as above; details: Amaranthus retroflexus, 312 h, rate 1000 g/ha, evaluated after 13 days, read-out: Post-emergence activity AMARE (100=total damage to plant; 0=no damage to plant)
Outline: as §2

Avena fatua (AVEFA) [9] = assay: as above; details: 312 h, rate 1000 g/ha, evaluated after 13 days, read-out: Post-emergence activity AVEFA (100=total damage to plant; 0=no damage to plant)
Outline: as §2

[10] = test system: Alopecurus myosuroides (ALOMY); assay: as above; details: 312 h, rate 1000 g/ha, evaluated after 13 days, read-out: Post-emergence activity ALOMY (100=total damage to plant; 0=no damage to plant)
Outline: as §2

Setaria faberi (SETFA) [11] = assay: as above; details: 312 h, rate 1000 g/ha, evaluated after 13 days, read-out: Post-emergence activity SETFA (100=total damage to plant; 0=no damage to plant)
Outline: as §2

[12] = test system: Echinochloa crus-galli (ECHCG); assay: Example A post-emergence herbicidal activity, glasshouse pot test; details: Rate 125 g/ha, evaluated 14 or 15 days later, read-out: Post-Emergence Activity ECHCG (100=total damage to plant; 0=no damage to plant)
Protocol: as §1

Avena fatua (AVEFA) [13] = assay: as above; details: Rate 125 g/ha, evaluated 14 or 15 days later, read-out: Post-Emergence Activity AVEFA (100=total damage to plant; 0=no damage to plant)
Protocol: as §1

[14] = test system: Digitaria sanguinalis (DIGSA); assay: as above; details: Rate 125 g/ha, evaluated 14 or 15 days later, read-out: Post-Emergence Activity DIGSA (100=total damage to plant; 0=no damage to plant)
Protocol: as §1

[15] = test system: Alopecurus myosuroides (ALOMY); assay: as above; details: Rate 125 g/ha, evaluated 14 or 15 days later, read-out: Post-Emergence Activity ALOMY (100=total damage to plant; 0=no damage to plant)
Protocol: as §1

Setaria faberi (SETFA) [16] = assay: as above; details: Rate 125 g/ha, evaluated 14 or 15 days later, read-out: Post-Emergence Activity SETFA (100=total damage to plant; 0=no damage to plant)
Protocol: as §1

Lolium perenne (LOLPE) [17] = assay: as above; details: Rate 125 g/ha, evaluated 14 or 15 days later, read-out: Post-Emergence Activity LOLPE (100=total damage to plant; 0=no damage to plant)
Protocol: as §1

Structure (SMILES)	pest or weed control at 250 g/ha [1] [%]	pest or weed control at 250 g/ha (Avena fatua (AVEFA) [2]) [%]	pest or weed control at 250 g/ha [3] [%]	pest or weed control at 250 g/ha [4] [%]	pest or weed control at 250 g/ha (Setaria faberi (SETFA) [5]) [%]	pest or weed control at 250 g/ha (Lolium perenne (LOLPE) [6]) [%]	pest or weed control at 1000 g/ha [7] [%]	pest or weed control at 1000 g/ha [8] [%]	pest or weed control at 1000 g/ha (Avena fatua (AVEFA) [9]) [%]	pest or weed control at 1000 g/ha [10] [%]	pest or weed control at 1000 g/ha (Setaria faberi (SETFA) [11]) [%]	pest or weed control at 125 g/ha [12] [%]	pest or weed control at 125 g/ha (Avena fatua (AVEFA) [13]) [%]	pest or weed control at 125 g/ha [14] [%]	pest or weed control at 125 g/ha [15] [%]	pest or weed control at 125 g/ha (Setaria faberi (SETFA) [16]) [%]	pest or weed control at 125 g/ha (Lolium perenne (LOLPE) [17]) [%]
COc1ccc(-c2nc(C3C(=O)[C@@H]4[C@H](C3=O)[C@H]3CC[C@@H]4O3)c(C)s2)cc1 (some centres unmarked) [Compound T21]	100	70	100	90	100	90	100	0	100	100	100	100	20	80	50	80	40
Cc1sc(-c2ccc(Cl)cc2)nc1C1C(=O)[C@@H]2[C@H](C1=O)[C@@]1(C)CC[C@]2(C)O1 (some centres unmarked) [Compound T26]	80	60	100	90	100	70	–	–	–	–	–	0	0	30	10	0	0
Cc1sc(-c2ccc(Cl)nc2)nc1C1C(=O)[C@@H]2[C@H](C1=O)[C@H]1CC[C@@H]2O1 (some centres unmarked) [Compound T30]	80	30	60	10	70	40	–	–	–	–	–	70	10	70	0	40	20
CCc1sc(-c2ccc(Cl)cc2)nc1C1C(=O)[C@@H]2[C@H](C1=O)[C@@]1(C)CC[C@]2(C)O1 (some centres unmarked) [Compound T27]	70	60	100	70	100	90	–	–	–	–	–	100	90	100	80	80	40
